# Measurements reported in the supplement of paper PMC10307832.
# What was measured:
# Experiment in all cases: relative viability (nuclei count vs DMSO), 5 days (fraction); higher = more cells survive
# Lapatinib + Vorinostat = compound: CS(=O)(=O)CCNCc1ccc(-c2ccc3ncnc(Nc4ccc(OCc5cccc(F)c5)c(Cl)c4)c3c2)o1 [Lapatinib] + O=C(CCCCCCC(=O)Nc1ccccc1)NO [Vorinostat] (partner 1 µM)
# In short: (§1)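 One day after seeding in 1536-well plates, lung cancer cell lines were dosed by pin tool. Dosing was either single-drug or a fixed anchor-drug dose plus five library-drug doses (not always all listed) in √10 steps. After 5 days, nuclei were stained in one fix-and-stain step and counted on 4× images, and relative viability is the nuclei count of treated wells over that of vehicle wells, given as the median of duplicate plates.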
# Wnt-C59 + Tozasertib = compound: CC1=NC=CC(=C1)C2=CC=C(C=C2)CC(=O)NC3=CC=C(C=C3)C4=CN=CC=C4 [Wnt-C59] + Cc1cc(Nc2cc(N3CCN(C)CC3)nc(Sc3ccc(NC(=O)C4CC4)cc3)n2)n[nH]1 [Tozasertib] (partner 0.1 µM)
# In short: as §1
# Wnt-C59 + Palbociclib = compound: CC1=NC=CC(=C1)C2=CC=C(C=C2)CC(=O)NC3=CC=C(C=C3)C4=CN=CC=C4 [Wnt-C59] + CC(=O)c1c(C)c2cnc(Nc3ccc(N4CCNCC4)cn3)nc2n(C2CCCC2)c1=O [Palbociclib] (partner 0.5 µM)
# In short: as §1
# Lapatinib + Pemetrexed = compound: CS(=O)(=O)CCNCc1ccc(-c2ccc3ncnc(Nc4ccc(OCc5cccc(F)c5)c(Cl)c4)c3c2)o1 [Lapatinib] + Nc1nc2[nH]cc(CCc3ccc(C(=O)N[C@@H](CCC(=O)O)C(=O)O)cc3)c2c(=O)[nH]1 [Pemetrexed] (partner 0.2 µM)
# In short: as §1
Cell Line,relative viability (Lapatinib + Vorinostat; first compound 0.02 µM),relative viability (Lapatinib + Vorinostat; first compound 0.06325 µM),relative viability (Lapatinib + Vorinostat; first compound 0.2 µM),relative viability (Lapatinib + Vorinostat; first compound 0.6325 µM),relative viability (Lapatinib + Vorinostat; first compound 2 µM),relative viability (Wnt-C59 + Tozasertib; first compound 0.001 µM),relative viability (Wnt-C59 + Tozasertib; first compound 0.01 µM),relative viability (Wnt-C59 + Tozasertib; first compound 0.03162 µM),relative viability (Wnt-C59 + Tozasertib; first compound 0.1 µM),relative viability (Wnt-C59 + Palbociclib; first compound 0.001 µM),relative viability (Wnt-C59 + Palbociclib; first compound 0.01 µM),relative viability (Wnt-C59 + Palbociclib; first compound 0.03162 µM),relative viability (Wnt-C59 + Palbociclib; first compound 0.1 µM),relative viability (Lapatinib + Pemetrexed; first compound 0.02 µM),relative viability (Lapatinib + Pemetrexed; first compound 0.06325 µM),relative viability (Lapatinib + Pemetrexed; first compound 0.2 µM),relative viability (Lapatinib + Pemetrexed; first compound 0.6325 µM),relative viability (Lapatinib + Pemetrexed; first compound 2 µM)
NCI-H838,0.699,0.69,0.743,0.732,0.544,0.332,0.247,0.293,0.263,0.238,0.22,0.238,0.221,0.275,0.244,0.258,0.311,0.251
HCC-78,,0.318,0.39,0.388,0.375,0.492,0.404,0.504,0.441,0.476,0.488,0.494,0.455,,0.832,0.882,0.841,0.936
NCI-H2228,0.774,0.7,0.907,0.517,0.48,0.31,0.322,0.264,0.23,1.06,0.633,0.884,0.869,0.338,0.34,0.312,0.272,0.331
NCI-H460,0.671,0.67,0.815,0.715,0.533,0.465,0.0488,0.555,0.48,0.185,0.145,0.207,0.147,0.0637,0.0621,0.0581,0.0692,0.0618
